# Counter-ions that a name gives are not always drawn. Like-named read-outs stand apart in the source and are kept apart here.
# What was measured:
# [1] = monkey
# Method: (§1) The stability of Iab was studied in fresh blood and serum from rat, dog, monkey and human (n=2). The blood was collected in vacutainers containing K2EDTA (Becton Dickinson, Franklin Lakes, N.J.). The serum was collected in vacutainers containing no anticoagulant. Iab was incubated at a starting concentration of approximately 10 μM for 60-90 min at 37° C. Serial samples were taken at the pre-determined times. Aliquots of blood samples (200 μL) were first mixed with 100 μL of water followed by 400 μL of acetonitrile. The serum samples (50 μL) were added into microtainers containing K2EDTA (Becton Dickinson, Franklin Lakes, N.J.) followed by the addition of 100 μL of acetonitrile. The supernatant was analyzed for both Iab and IVa by LC/MS/MS. The stability of Ibb was studied in fresh blood and serum from rat, dog, monkey and human (n=2). The blood was collected in vacutainers containing K2EDTA (Becton Dickinson, Franklin Lakes, N.J.). The serum was collected in vacutainers containing no anticoagulant. Ibb was incubated at a starting concentration of approximately 15 μM for 90 min at 37° C. Serial samples were taken at the pre-determined times. Aliquots of blood samples (200 μL) were first mixed with 100 μL of water followed by 400 μL of acetonitrile. The serum samples (50 μL) were added into microtainers containing K2EDTA (Becton Dickinson, Franklin Lakes, N.J.) followed by the addition of 100 μL of acetonitrile. […] The stability of Icb was studied in fresh blood and serum from rat, dog, monkey and human (n=2). The blood was collected in vacutainers containing K2EDTA (Becton Dickinson, Franklin Lakes, N.J.). The serum was collected in vacutainers containing no anticoagulant. Icb was incubated at a starting concentration of approximately 10 μM for 90 min at 37° C. Serial samples were taken at the pre-determined times. Aliquots of blood samples (200 μL) were first mixed with 100 μL of water followed by 400 μL of acetonitrile. The serum samples (50 μL) were added into microtainers containing K2EDTA (Becton Dickinson, Franklin Lakes, N.J.) followed by the addition of 100 μL of acetonitrile.
# [2] = dog
# Method: as §1
# [3] = human
# Method: as §1
# [4] = 2-week rat toxicity study (5, 50 or 500 mg/kg BID); type: in vivo; conditions: 2 weeks, in-life phase completed
# Method: A 2-week rat toxicity study using dosages of 5, 50, or 500 mg/kg BID to support the IND is ongoing (3).
# [5] = Single dose study of Compound IVa in healthy human volunteers (capsule/solution, fasted/fed; first-in-human); type: in vivo; conditions: for AUCtotal / Cmax: n = 6
# Method: The parent compound IVa has been studied in human clinical trials. The compound was dosed in healthy human volunteers.
# It is also readily apparent from the oral AUCs, that increases in drug exposure increased much more slowly and less than proportionally with dose. […] Between 200-800 mg dose range the increases in systemic exposure is dose-related although less than dose-proportional, while such exposure is dose independent above dose of 800 mg.
# Dosing with a solution increased Compound IVa exposure.
# The AUCs after a fed treatment were approximately 2.5 and 4.7 fold for 800 and 1800 mg doses, respectively, of those of the fasted treatment.
# For the 800 mg capsule with food, the average plasma concentration is 1001 and 218 ng/mL at 8 and 12 hours post dose, respectively. The results supported a ql2 h or q8 h dosing regimen for a targeted Cmin value of at least 200 ng/mL after multiple doses. This value was selected based on preclinical data.
# HIV-1 = experiment: Multiple dose study in HIV patients (antiviral activity of IVa); type: in vivo, human
# Method: Based on the exposure data from the studies in normal volunteers, an efficacy study was carried out in HIV patients. […] “Antiviral Activity, Safety, and Tolerability of a Novel, Oral Small-Molecule HIV-1 Attachment Inhibitor, IVa, in HIV-1-Infected Subjects” G. Hanna, J. Lalezari, J. Hellinger, D. Wohl, T. Masterson, W. Fiske, J. Kadow, P-F. Lin, M. Giordano, R. Colonno, D. Grasela. Abstract J-32, Feb. 11, 2004, 11th Conference on Retroviruses and Opportunistic Infections (CROI), San Francisco, Calif. The study design included HIV+ adults who were either antiretroviral therapy naïve or off antiretroviral therapy for ≧16 weeks. Their CD4 counts were required to be ≧250 cells/mm3 and plasma HIV-1 RNA needed to be in the range 5,000-500,000 c/mL. There were 15 subjects in each dose arm and the ratio of patients receiving drug:placebo was 4:1.
# The placebo-controlled, sequential study of IVa utilized an initial dose arm of 800 mg PO every 12 h followed by a second dosing arm of 1800 mg PO administered every 12 h. It is important to note that drug was administered in a capsule and in combination with a high fat meal to increase exposure and plasma levels. Study drug was administered for 7 days and the morning of Day 8. Subjects were followed for 14 days.
# [6] = Oral dose escalation study in rats (Study D of Ica; historical Study E of IVc); type: in vivo; conditions: Sprague-Dawley, rat, plasma; for concentration at 24 h: read-out: C-24 hr; for AUC: read-out: Mean AUCtot
# Method: Pharmacokinetic analysis was performed on Kinetica™.
# The brain samples were blotted dry and the wet weights were recorded.
# [7] = 2-week oral dose rat toxicology / TK study F; type: in vivo; conditions: rat, plasma, historical; for AUC(0-t): read-out: Mean AUC0-24 hr
# Method: In the 2-week oral rat study F (n=six/sex/group), Compound IVe was administered at daily doses of 15, 75, or 200 mg/kg. […] On Day 14, AUC0-24 h values were slightly higher in females (≦644 μg*hr/ml) compared to males (526.88 μg*hr/ml) at dosages 200 mg/kg/day. The oral (PO) results from Study F are in Table 5.
# pKa = type: physicochemical; conditions: read-out: pKa (potentiometric)
# Caco-2 cells = experiment: Hydrolysis of prodrug in Caco-2 cells; type: in vitro ADME
# [8] = 1800 mg capsule, high fat meal vs fasted
# [9] = fed (high fat meal), dose ratio 1:2.3 (800 mg vs. 1800 mg)
# [10] = 800 mg PO every 12 h with high fat meal
compound,measurement,setting,value
"COc1cnc(-n2cnc(C)n2)c2c1c(C(=O)C(=O)N1CCN(C(=O)c3ccccc3)CC1)cn2COP(=O)(O)O [Icb, [3-[(4-benzoylpiperazin-1-yl)(oxo)acetyl]-4-methoxy-7-(3-methyl-1H-1,2,4-triazol-1-yl)-1H-pyrrolo[2,3-c]pyridin-1-yl]methyl dihydrogen phosphate, 2-amino-2-(hydroxymethyl)propane-1,3-diol salt (1:1)]",conversion of prodrug to parent in blood containing EDTA,[1],< 2%
same,Icb,[1]; 0 min,12 µM
same,Icb,[1]; 15 min,12 µM
same,Icb,[1]; 90 min,11 µM
same,conversion of prodrug to parent in blood containing EDTA,[2],< 2%
same,Icb,[2]; 0 min,10 µM
same,Icb,[2]; 15 min,10 µM
same,Icb,[2]; 90 min,11 µM
same,conversion of prodrug to parent in blood containing EDTA,[3],< 2%
same,Icb,"[3]; 0 min, 10 μM",11 µM
same,Icb,[3]; 15 min,11 µM
same,Icb,[3]; 30 min,13 µM
same,Icb,"[3]; 45 min, 10 μM",12 µM
same,Icb,"[3]; 60 min, 10 μM",11 µM
same,Icb,"[3]; 90 min, 10 μM",11 µM
"COc1cnc(OC)c2c1c(C(=O)C(=O)N1CCN(C(=O)c3ccccc3)CC1)cn2COP(=O)(O)O [Iab, {3-[(4-benzoylpiperazin-1-yl)(oxo)acetyl]-4,7-dimethoxy-1H-pyrrolo[2,3-c]pyridin-1-yl}methyl dihydrogen phosphate, L-lysine salt (1:1)]",in-life observations,[4],no noteworthy in-life observations
"COc1ncc(OC)c2c(C(=O)C(=O)N3CCN(C(=O)c4ccccc4)CC3)c[nH]c12 [IVa, N-(benzoyl)-N′-[(4,7-dimethoxy-6-azaindol-3-yl)-oxoacetyl]piperazine]",AUC of the solution relative to the capsule,[5]; 200 mg,~3 fold
same,Cmax of the solution relative to the capsule,[5]; 200 mg,approximately 8 fold
same,relative bioavailability (fed vs. fasted),[5]; 800 mg,293%
same,AUCtotal,"[5]; 800 mg, Fasting",22 ± 12 µM·h
same,AUCtotal,"[5]; 800 mg, Fed",53 ± 10 µM·h
same,relative bioavailability (fed vs. fasted),[5]; 1800 mg,509%
same,AUC Fed/Fasting Ratio,[5]; [8],4.3
same,Cmax Fed/Fasting Ratio,[5]; [8],4.5
same,AUCtotal,"[5]; 1800 mg, Fasting",19 ± 5.8 µM·h
same,AUCtotal,"[5]; 1800 mg, Fed",82 ± 16 µM·h
same,ratio of AUC,[5]; [9],1.5
same,ratio of Cmax,[5]; [9],1.6
same,bioavailability,"[5]; human, plasma, oral, 200 mg, read-out: relative bioavailability of the capsule to the solution formulation",32%
same,Cmax,"[5]; human, plasma, oral, 800 mg, Fasting",3.7 ± 1.1 µM
same,Cmax,"[5]; human, plasma, oral, 800 mg, Fed",9.8 ± 1.3 µM
same,Cmax,"[5]; human, plasma, oral, 1800 mg, Fasting",3.3 ± 0.84 µM
same,Cmax,"[5]; human, plasma, oral, 1800 mg, Fed",15 ± 5 µM
same,concentration at 8 h,"[5]; human, plasma, oral, 800 mg capsule with food, 8 hours post dose",1000 ng/mL
same,concentration at 12 h,"[5]; human, plasma, oral, 800 mg capsule with food, 12 hours post dose",218 ng/mL
same,Tmax,"[5]; human, plasma, oral, fed, read-out: median Tmax",4 h
same,"Day 8 Change in CD4, Mean (SD)",HIV-1; [10],106 (151) cells/mm3
same,"Day 8 Change in CD4, Range",HIV-1; [10],−214 to +272 cells/mm3
same,"Maximal Change in HIV RNA Over 14 days >0.5 log10 c/mL, n (%)",HIV-1; [10],8 (67%) n (%)
same,"Maximal Change in HIV RNA Over 14 days >1.0 log10 c/mL, n (%)",HIV-1; [10],7 (58%) n (%)
same,"Maximal Change in HIV RNA Over 14 days >1.5 log10 c/mL, n (%)",HIV-1; [10],3 (25%) n (%)
same,"Maximal change in HIV RNA Over 14 days, Mean (SD)",HIV-1; [10],−1.00 (0.50) log10 c/mL
same,"Maximal change in HIV RNA Over 14 days, Range",HIV-1; [10],−0.32 to −1.60 log10 c/mL
same,"Day 8 Change in HIV RNA, Mean (SD)","HIV-1; 800 mg PO every 12 h with high fat meal, HIV+ adults",−0.72 (0.51) log10 c/mL
same,patients with >1.0 log drop in viral load,HIV-1; 800 mg dosing level with high fat meal,58%
same,mean response (drop in viral load),HIV-1; 1800 mg every 12 h with high fat meal,−0.96 log 10
COc1cnc(-n2cnc(C)n2)c2[nH]cc(C(=O)C(=O)N3CCN(C(=O)c4ccccc4)CC3)c12 [IVc],concentration at 24 h,"[6]; oral, 25 mg/kg",0.61 µM
same,concentration at 24 h,"[6]; oral, 75 mg/kg",5.2 µM
same,concentration at 24 h,"[6]; oral, 200 mg/kg",10 µM
same,Cmax,"[6]; po, 25 mg/kg",46 µM
same,Tmax,"[6]; po, 25 mg/kg",4 h
same,AUC,"[6]; po, 25 mg/kg",458 µM·h
same,Cmax,"[6]; po, 75 mg/kg",86 µM
same,Tmax,"[6]; po, 75 mg/kg",5 h
same,AUC,"[6]; po, 75 mg/kg",1070 µM·h
same,Cmax,"[6]; po, 200 mg/kg",42 µM
same,Tmax,"[6]; po, 200 mg/kg",4 h
same,AUC,"[6]; po, 200 mg/kg",518 µM·h
same,Cmax,"[6]; male, po, 5 mg/kg",29 ± 14 µM
same,Tmax,"[6]; male, po, 5 mg/kg",0.5 ± 0.25 h
same,concentration at 24 h,"[6]; male, po, 5 mg/kg",0.029 ± 0.008 µM
same,AUC,"[6]; male, po, 5 mg/kg",109 ± 15 µM·h
same,Cmax,"[6]; male, po, 25 mg/kg",98 ± 21 µM
same,Tmax,"[6]; male, po, 25 mg/kg",1.7 ± 2 h
same,concentration at 24 h,"[6]; male, po, 25 mg/kg",0.35 ± 0.13 µM
same,AUC,"[6]; male, po, 25 mg/kg",586 ± 53 µM·h
same,Cmax,"[6]; male, po, 200 mg/kg",281 ± 55 µM
same,Tmax,"[6]; male, po, 200 mg/kg",1.1 ± 0.8 h
same,concentration at 24 h,"[6]; male, po, 200 mg/kg",58 ± 36 µM
same,AUC,"[6]; male, po, 200 mg/kg",2920 ± 304 µM·h
same,Cmax,"[7]; rats PO 15 mg/kg (soln), 80/10/10 PEG-400/Ethanol/0.1N NaOH",42 µM
same,AUC(0-t),[7]; rats PO 15 mg/kg (soln),418 µM·h
same,Cmax,[7]; rats PO 75 mg/kg (susp),65 µM
same,AUC(0-t),[7]; rats PO 75 mg/kg (susp),792 µM·h
same,Cmax,[7]; rats PO 200 mg/kg (susp),76 µM
same,AUC(0-t),[7]; rats PO 200 mg/kg (susp),1080 µM·h
"O=C(C(=O)N1CCN(C(=O)c2ccccc2)CC1)c1cn(COP(=O)(O)O)c2c(-n3ccnn3)ncc(F)c12 [Ibb, [3-[(4-benzoylpiperazin-1-yl)(oxo)acetyl]-4-fluoro-7-(1H-1,2,3-triazol-1-yl)-1H-pyrrolo[2,3-c]pyridin-1-yl]methyl dihydrogen phosphate, L-lysine salt (1:1)]",pKa,pKa,6.1
same,hydrolysis to parent in Caco-2 cells,Caco-2 cells,completely hydrolyzed

# — US20150315218A1, “SALTS OF PRODRUGS OF PIPERAZINE AND SUBSTITUTED PIPERIDINE ANTIVIRAL AGENTS” (Bristol-Myers Squibb Company, priority 2004, published 2015)
